Reference: patent US20020022718A1, “Genes identified as required for proliferation of E. coli” (priority 1999, published 2002)
In brackets after ≈: the same amount, converted by molar mass. Where two headings read alike, the source gives them in different places. Bridge positions count the residues as written; N and C are the ends. Square brackets hold non-standard residues; d marks the D form. Peptide text beside a SMILES is read from it. * marks the point of attachment. Ileψ(thiazoline)Cys = CC[C@H](C)[C@H](N)C1=N[C@H](C(=O)*)CS1; dOrn = NCCC[C@@H](N)C(=O)O

B1: EcXA119: antisense clone insert to E. coli b2883 (nucleic acid, listed as Escherichia coli)
antisense: CTCTTTTTCTTCGAGATGGACGCAGTGAGCAAAGACACAGTTTTTACCGGTCAGGCCGTACTGATGGTAAACATCCAGATAACCATCATGGTCAGGATAAAGCGATTTCACCCAGGCAATTTCATCTTTGTTTTCACAGAGATGGGTATGTACCCACGTATCCGGATATTCTTCTTTCAGGCGTTGCGCCATCGCCATCTGTTCAGGAGATGAGGTCGGGGCGAAGCGTGGCGTAATCGCATATAGCAGACGACC
B2: EcXA120: antisense clone insert to E. coli b1509 (nucleic acid, listed as Escherichia coli)
antisense: TCCGCGATCGCGGATAAAAAGGAGGATTTAAATAAGGCGTTGATGCGCCGTTTGAAGTCGGCAATATTAAGCCGCATGCCATCTCGACATGCGGCTTATACGGTTTACCAGCTATATTTCACTCCCAGCATGCCCTGAGTATCGCTATAGCCTTTATCACCTAGTTGCACACCGACATTCCCCCACAGGCTAAGGTTGTTATTTACTTTCGCCTCAACCCCGGTACGTACTTCACCGAGATTACGCGCACCTTCACGGCCTACGGTTTGACCATTCATCTTCACGGCGTAGACTTTGCTATTGTTGATCCAGTTCGCTTCAATGTAAGGCTGGAACTCACGCTGTTTACCATCGTCACGCTGGTGATGGCTGTTCAGGTAGGTTTTCACCCCAAG

Assays:
[1] = tested on: Bacterial cells expressing antisense nucleic acid complementary to rplL and rplJ (50S ribosomal subunit proteins); test: microbe, parasite or virus in culture; type: cell-based, E. coli; details: for IC50: Escherichia coli; for Fold Increase in Sensitivity: IC50 −IPTG versus +IPTG (400 μM); for Sensitivity Increased?: significant decrease in IC50 in the presence of inducer IPTG
Procedure: Two-fold dilution series of antibiotics with a known mechanism of action are generated in the culture media selected for further assay development that has been supplemented with the antibiotic used to maintain the construct. A panel of test antibiotics known to act on different pathways is tested side by side with three to four wells being used to evaluate the effect of a test antibiotic on cell growth at each concentration. Equal volumes of test antibiotic and cells are added to the wells of a 384 well microtiter plate and mixed. Cells are prepared as described above using the media selected for assay development supplemented with the antibiotic required to maintain the antisense construct and are diluted 1:100 in identical media immediately prior to addition to the microtiter plate wells. For a control, cells are also added to several wells that contain the solvent used to dissolve the antibiotics but no antibiotic. Cell growth is monitored continuously by incubation at 37° C. in a microtiter plate reader monitoring the OD600 of the wells over an 18-hour period. […] A plot of percent inhibition against log[antibiotic concentration] allows extrapolation of an IC50 value for each antibiotic.
The culture media selected for use in the assay is supplemented with inducer at concentrations shown to inhibit cell growth by 50% and 80% as described above and the antibiotic used to maintain the construct. Two fold dilution series of the panel of test antibiotics used above are generated in each of these media. Several antibiotics are tested side by side with three to four wells being used to evaluate the effects of an antibiotic on cell growth at each concentration, in each media. Equal volumes of test antibiotic and cells are added to the wells of a 384 well microtiter plate and mixed. Cells are prepared as described above using the media selected for use in the assay supplemented with the antibiotic required to maintain the antisense construct. […] Immediately prior to addition to the microtiter plate wells, the cultures are adjusted to an appropriate OD600 (typically 0.002) by dilution into warm (37° C.) sterile media supplemented with identical concentrations of the inducer and antibiotic used to maintain the antisense construct. For a control, cells are also added to several wells that contain solvent used to dissolve test antibiotics but which contain no antibiotic. Cell growth is monitored continuously by incubation at 37° C. in a microtiter plate reader monitoring the OD600 of the wells over an 18-hour period. […] A plot of percent inhibition against log[antibiotic concentration] allows extrapolation of an IC50 value for each antibiotic.
Antibiotics of various chemical classes and modes of action were purchased from Sigma Chemicals (St. Louis, Mo.). Stock solutions were prepared by dissolving each antibiotic in an appropriate aqueous solution based on information provided by the manufacturer. The final working solution of each antibiotic contained no more than 0.2% (w/v) of any organic solvent. To determine their potency against a bacterial strain engineered for expression of an antisense complementary to a proliferation-required gene encoding 50S ribosomal protein, each antibiotic was serially diluted two or three fold in growth medium supplemented with the appropriate antibiotic for maintenance of the anti-sense construct. At least ten dilutions were prepared for each antibiotic. 25 μL aliquots of each dilution were transferred to discrete wells of a 384-well microplate (the assay plate) using a multi-channel pipette. Quadruplicate wells were used for each dilution of an antibiotic under each treatment condition (plus and minus inducer). Each assay plate contained twenty wells for cell growth controls (growth media replacing antibiotic), ten wells for each treatment (plus and minus inducer, in this example IPTG).

[2] = tested on: Klebsiella pneumoniae; test: Growth inhibition by induced E. coli antisense RNA in Klebsiella pneumoniae; type: cell-based; design: key: +: a positive in Table V below means that at least 10 fold more cells were required to observe a colony on the induced plate than on the non-induced plate; −: If there was no effect of antisense RNA expression in a microorganism, the clone is minus in Table V below; details: antisense RNA expression induced with IPTG, serial dilution plating
Procedure: To study the effects of transcriptional induction in liquid medium, growth curves were carried out by back diluting cultures 1:200 into fresh media with or without 1 mM IPTG and measuring the OD450 every 30 minutes (min). To study the effects of transcriptional induction on solid medium, 10^2, 10^3, 10^4, 10^5, 10^6, 10^7 and 10^8 fold dilutions of overnight cultures were prepared. Aliquots of from 0.5 to 3 μl of these dilutions were spotted on selective agar plates with or without 1 mM IPTG. After overnight incubation, the plates were compared to assess the sensitivity of the clones to IPTG.
Molecule No. EcXA190, encoding a portion of the b3052 gene of Escherichia coli, was either transformed directly into Enterobacter cloacae, Salmonella typhimurium and/or Klebsiella pneumoniae or subcloned into an expression vector functional in these species and the subclones transformed into these organisms. Suitable expression vectors are well known in the art. These expression vectors were introduced into Enterobacter cloacae, Salmonella typhimurium and/or Klebsiella pneumoniae cells that were then assayed for growth inhibition according to the method of Example 1. After growth in liquid culture, cells were plated at various serial dilutions and a score determined by calculating the log difference in growth for INDUCED vs. UNINDUCED antisense RNA expression as determined by the maximum 10 fold dilution at which a colony was observed. If there was no effect of antisense RNA expression in one organism, the clone is given a score of zero “0” in that organism. In contrast, a score of “8” means that 10^8 times more cells were required to observe a colony formed on the induced state than in the non-induced state under the conditions used and in that organism.
In addition, the above methods were validated using other antisense nucleic acids which inhibit the growth of E. coli which were identified using methods similar to those described above. Expression vectors which inhibited growth of E. coli upon induction of antisense RNA expression with IPTG were transformed directly into Enterobacter cloacae, Klebsiella pneumonia or Salmonella typhimurium. The transformed cells were then assayed for growth inhibition according to the method of Example 1. After growth in liquid culture, cells were plated at various serial dilutions and a score determined by calculating the log difference in growth for INDUCED vs. UNINDUCED antisense RNA expression as determined by the maximum 10 fold dilution at which a colony was observed. If there was no effect of antisense RNA expression in a microorganism, the clone is minus in Table V below. In contrast, a positive in Table V below means that at least 10 fold more cells were required to observe a colony on the induced plate than on the non-induced plate under the conditions used and in that microorganism.

Row | Molecule | IC50 ([1]; read-out: IC50 (+IPTG)) | IC50 ([1]; read-out: IC50 (−IPTG)) | Fold Increase in Sensitivity [1] | Sensitivity Increased? [1] | IC50 (+IPTG) ([1]; antisense to rplL and rplJ induced, 400 μM IPTG) | IC50 (−IPTG) ([1]; non-induced cells, 0 μM IPTG) | Sensitivity of K. pneumoniae to antisense nucleic acid (growth inhibition, induced vs. uninduced) [2]
1 | CC[C@H](C)[C@H](N)C1=N[C@H](C(=O)N[C@@H](CC(C)C)C(=O)N[C@H](CCC(=O)O)C(=O)N[C@H](C(=O)N[C@H]2CCCCNC(=O)[C@H](CC(N)=O)NC(=O)[C@@H](CC(=O)O)NC(=O)[C@H](Cc3cnc[nH]3)NC(=O)[C@@H](Cc3ccccc3)NC(=O)[C@H]([C@@H](C)CC)NC(=O)[C@@H](CCCN)NC2=O)[C@@H](C)CC)CS1 [Bacitracin] ({Ileψ(thiazoline)Cys}-L[dE]IK[dOrn]I[dF]H[dD]N; lactam 4-C) | 4.68 mg/L (≈ 3.29 µM) | 4.08 mg/L (≈ 2.87 µM) | 1 | No |  |  | 
2 | CO/N=C(\C(=O)N[C@@H]1C(=O)N2C(C(=O)O)=C(COC(C)=O)CS[C@H]12)c1csc(N)n1 [Cefotaxime] | 0.0242 mg/L (≈ 0.053 µM) | 0.0243 mg/L (≈ 0.0534 µM) | 1 | No |  |  | 
3 | CO[C@@]1(NC(=O)Cc2cccs2)C(=O)N2C(C(=O)O)=C(COC(N)=O)CS[C@@H]21 [Cefoxitin] | 2.48 mg/L (≈ 5.81 µM) | 2.78 mg/L (≈ 6.51 µM) | 1 | No |  |  | 
4 | O=C(N[C@H](CO)[C@H](O)c1ccc([N+](=O)[O-])cc1)C(Cl)Cl [Chloramphenicol] | 0.00152 mg/L (≈ 0.00469 µM) | 0.465 mg/L (≈ 1.44 µM) | 307 | Yes |  |  | 
5 | C[C@H]1c2cccc(O)c2C(=O)C2=C(O)[C@]3(O)C(=O)C(C(N)=O)=C(O)[C@@H](N(C)C)[C@@H]3[C@@H](O)[C@@H]21 [Doxycycline] | 0.0278 mg/L (≈ 0.0626 µM) | 0.413 mg/L (≈ 0.929 µM) | 15 |  |  |  | 
6 | CC(=O)O[C@H]1C[C@@]2(C)[C@@H](C[C@@H](O)[C@H]3[C@@]4(C)CC[C@@H](O)[C@@H](C)[C@@H]4CC[C@@]32C)/C1=C(\CCC=C(C)C)C(=O)O [Fusidic acid] | 0.641 mg/L (≈ 1.24 µM) | 60 mg/L (≈ 116 µM) | 94 | Yes |  |  | 
7 | CCC[C@@H]1C[C@@H](C(=O)N[C@@H]([C@H]2O[C@H](SC)[C@H](O)[C@@H](O)[C@H]2O)[C@@H](C)O)N(C)C1 [Lincomycin] | 0.324 mg/L (≈ 0.797 µM) | 47.1 mg/L (≈ 116 µM) | 145 | Yes |  |  | 
8 | CN(C)c1ccc(O)c2c1C[C@H]1C[C@H]3[C@H](N(C)C)C(O)=C(C(N)=O)C(=O)[C@@]3(O)C(O)=C1C2=O [Minocycline] | 0.0039 mg/L (≈ 0.00852 µM) | 0.668 mg/L (≈ 1.46 µM) | 172 |  |  |  | 
9 | CC1COc2c(N3CCN(C)CC3)c(F)cc3c(=O)c(C(=O)O)cn1c23 (stereo not drawn) [Ofloxacin] | 0.0459 mg/L (≈ 0.127 µM) | 0.0496 mg/L (≈ 0.137 µM) | 1 |  |  |  | 
10 | CN[C@@H]1[C@H](O)[C@H](NC)[C@H]2O[C@@]3(O)C(=O)C[C@@H](C)O[C@H]3O[C@@H]2[C@H]1O [Spectinomycin] | < 0.156 mg/L | 18.1 mg/L (≈ 54.3 µM) |  | Yes |  |  | 
11 | [H]/N=C(/N)N[C@H]1[C@H](O)[C@@H](O)[C@H](O[C@@H]2O[C@@H](C)[C@](O)(C=O)[C@H]2O[C@@H]2O[C@@H](CO)[C@H](O)[C@@H](O)[C@@H]2NC)[C@@H](N/C(N)=N\[H])[C@@H]1O [Streptomycin] | 0.161 mg/L (≈ 0.277 µM) | 11.3 mg/L (≈ 19.4 µM) | 70 | Yes |  |  | 
12 | CN(C)[C@@H]1C(O)=C(C(N)=O)C(=O)[C@@]2(O)C(O)=C3C(=O)c4c(O)cccc4[C@@](C)(O)[C@H]3C[C@@H]12 [Tetracycline] | 0.00183 mg/L (≈ 0.00412 µM) | 0.2 mg/L (≈ 0.449 µM) | 109 |  |  |  | 
13 | NC[C@H]1O[C@H](O[C@H]2[C@H](O)[C@@H](O[C@H]3O[C@H](CO)[C@@H](O)[C@H](N)[C@H]3O)[C@H](N)C[C@@H]2N)[C@H](N)C[C@@H]1O [Tobramycin] | 0.0706 mg/L (≈ 0.151 µM) | 3.59 mg/L (≈ 7.69 µM) | 51 | Yes |  |  | 
14 | CN[C@H](CC(C)C)C(=O)N[C@H]1C(=O)N[C@@H](CC(N)=O)C(=O)N[C@H]2C(=O)N[C@H]3C(=O)N[C@H](C(=O)N[C@H](C(=O)O)c4cc(O)cc(O)c4-c4cc3ccc4O)[C@H](O)c3ccc(c(Cl)c3)Oc3cc2cc(c3O[C@@H]2O[C@H](CO)[C@@H](O)[C@H](O)[C@H]2O[C@H]2C[C@](C)(N)[C@H](O)[C@H](C)O2)Oc2ccc(cc2Cl)[C@H]1O [Vancomycin] | 72.5 mg/L (≈ 50.1 µM) | 145 mg/L (≈ 100 µM) | 2 | No |  |  | 
15 | Gentamicin |  |  | 141 | Yes | 0.01919 mg/L | 2.715 mg/L | 
16 | B1 |  |  |  |  |  |  | −
17 | B2 |  |  |  |  |  |  | −
